# Experimental data: patent US10179777B2, “3-(1H-benzimidazol-2-yl)-1H-pyridin-2-one derivatives” (MERCK PATENT GMBH, priority 2015, dated 2019)
# Structures can show the parent of a compound that is named as a salt.
# Assays:
# [1] = target: T1, ALK1 (GST-modified kinase domain ACVRL1 (139-503)) (Homo sapiens, UniProt P37023); assay: ALK1 kinase inhibition assay (33P-ATP filter binding, Reaction Biology); format: biochemical; settings: casein substrate, 100 μM ATP (Km ATP), 120 min ambient temperature
# T1 construct: N-terminally GST-modified kinase domain ACVRL1 (139-503); GST (N)
# T1 sequence (P37023 139-503): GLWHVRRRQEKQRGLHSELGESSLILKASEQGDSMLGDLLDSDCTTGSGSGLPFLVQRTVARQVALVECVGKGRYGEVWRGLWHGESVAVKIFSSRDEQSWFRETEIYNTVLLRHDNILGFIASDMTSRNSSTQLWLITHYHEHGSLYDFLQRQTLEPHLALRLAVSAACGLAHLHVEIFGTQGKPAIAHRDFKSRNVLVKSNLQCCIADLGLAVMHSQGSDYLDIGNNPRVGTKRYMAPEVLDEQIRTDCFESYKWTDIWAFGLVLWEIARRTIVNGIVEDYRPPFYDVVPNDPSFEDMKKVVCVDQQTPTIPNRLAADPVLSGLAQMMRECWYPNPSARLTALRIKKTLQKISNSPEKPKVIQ
# How it was run: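 GST-tagged kinase domain with 20 mg/ml casein substrate in 20 mM HEPES pH 7.5, 10 mM MgCl2, 1 mM EGTA, 2 mM DTT, 1% DMSO; 120 min at ambient temperature. Phosphorylation read by P81 filter binding; background-subtracted activity as percent of DMSO vehicle, curve-fit for IC50.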
# [2] = target: T2, ALK5 (TGFβR1; GST-modified TGFBR1 (200-503)) (Homo sapiens, UniProt P36897); assay: ALK5 kinase inhibition assay (33P-ATP filter binding, Reaction Biology); format: biochemical; settings: casein substrate, 200 μM ATP
# T2 construct: Using GST-Modified TGFBR1 (200-503); GST
# T2 sequence (P36897 200-503): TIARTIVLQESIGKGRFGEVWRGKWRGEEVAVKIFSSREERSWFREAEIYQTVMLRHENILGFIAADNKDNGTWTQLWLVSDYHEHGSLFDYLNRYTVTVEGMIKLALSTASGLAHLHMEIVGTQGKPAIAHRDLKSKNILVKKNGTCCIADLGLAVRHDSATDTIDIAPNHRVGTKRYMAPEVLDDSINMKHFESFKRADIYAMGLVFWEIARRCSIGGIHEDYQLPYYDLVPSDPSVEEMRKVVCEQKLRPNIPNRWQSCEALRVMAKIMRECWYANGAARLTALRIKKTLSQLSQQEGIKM
# Protocol: The protein sequences of the kinases targeted and accompanying information are described in publically available data base http://www.uniprot.org/uniprot/for ALK1 www.uniprot.org/uniprot/P37023, for ALK2 www.uniprot.org/uniprot/Q04771 and for ALK5 www.uniprot.org/uniprot/P36897. IC50 determination of the novel inhibitors described was performed at Reaction Biology Corp., Malvern, Pa., USA, with assay conditions open to public at www.reactionbiology.com/webapps/site/KinaseDetail.aspx?page=Kinases&id=1, and www.reactionbiology.com/webapps/site/Kinase Assay Protocol.aspx. In addition, they were specified previously in Anastassiadis et al. Nat. Biotechnol. 29(11): 1039-1045. doi:10.1038/nbt.2017.
# A3) ALK5 Kinase Inhibition Assay Was Performed Similar to Procedures A1 and A2 Using GST-Modified TGFBR1 (200-503) and 1 mg/ml Casein as Substrate at 200 μM ATP.
# [3] = test system: ALK1-mediated SMAD1/5 phosphorylation in HUVEC cells; assay: Cell-based immunofluorescence assay for ALK1-mediated SMAD1/5 phosphorylation in HUVEC cells; settings: Homo sapiens, 1.5 ng/ml BMP-9 with compound for 2 h, % nuclei with pSMAD1/5 signal, read-out: Smad 1/5 IC50
# Text: In vitro cell-based Immunofluorescence-Assay for identification of inhibitors of ALK1-mediated SMAD1/5 phosphorylation in HUVEC cells:
# ALK1 is a type I cell-surface receptor for the TGF-β superfamily of ligands. In adults ALK1 is mainly expressed on activated endothelial cells, e.g. during wound healing or in tumor angiogenesis. BMP9 and BMP10 are high affinity ligands for ALK1.
# BMP9 and BMP10 binding leads to the phosphorylation of so-called Smad1 at Ser463 and Ser465 in the carboxy-terminal motif SSXS, as well as Smad5 and Smad8 at their corresponding sites. These phosphorylated Smads dimerize with the coactivating Smad4 and translocate to the nucleus, where they stimulate transcription of target genes.
# Primary endothelial cells (HUVEC: Human Umbilical Vein Endothelial Cells; supplier Promocell) are cultivated in the culture medium obtained from Promocell (with supplements corresponding to 5% FCS) for maximum 5 passages, seeded into black 384-well culture plates with clear bottom (3000 cells/well/30 μl), and incubated for 16-24 hours at 37° C., 5% CO2 and 90% rH.
# The following day cells were serum-starved for 2-3 h in order to stop TGF-ß-mediated signalling derived from ligands present in FBS. 1.5 ng/ml BMP-9 was than added in parallel with test compounds for 2 h at 37° C., 5% CO2 in order to identify compounds which block functional activity of ALK1 leading to phosphorylation and nuclear translocation of SMAD1/5/8.
# After fixation (15 min 4% Formaldehyd in PBS) and permeabilization (10 min 0.2% Triton X-100 in PBS) an indirect immunocytochemical staining is performed with a specific Phospho-Smad1/5 (Ser463/465) antibody (Cell Signaling #9516) and Alexa488-labelled secondary anti-rabbit-IgG-antibody. DNA staining with Propidium Iodide allowed parallel cell counting. Image acquisition and analysis was performed on an MDS ImageXpress Ultra confocal High Content Reader using the image analysis software MetaXpress. Final read-out were % nuclei with a pSMAD1/5 signal above a defined background.
# The final DMSO concentration in the assay was 0.5%. DMSO-treated HUVEC cells served as neutral control (=0%) and cells treated with 10 μM of a reference inhibitor described in a patent served as inhibitor control (=−100%). Raw data were normalised to the neutral and inhibitory references. The assay was performed as dose response (10 compound dilutions, 1 nM-30 μM).
# [4] = target: T3, ALK2 (GST-modified kinase domain ACVR1(145-509)) (Homo sapiens, UniProt Q04771); assay: ALK2 kinase inhibition assay (33P-ATP filter binding, Reaction Biology); format: biochemical; settings: casein substrate, 20 μM ATP (Km ATP), 120 min ambient temperature
# T3 construct: N-terminally GST-modified kinase domain ACVR1(145-509); GST (N)
# T3 sequence (Q04771 145-509): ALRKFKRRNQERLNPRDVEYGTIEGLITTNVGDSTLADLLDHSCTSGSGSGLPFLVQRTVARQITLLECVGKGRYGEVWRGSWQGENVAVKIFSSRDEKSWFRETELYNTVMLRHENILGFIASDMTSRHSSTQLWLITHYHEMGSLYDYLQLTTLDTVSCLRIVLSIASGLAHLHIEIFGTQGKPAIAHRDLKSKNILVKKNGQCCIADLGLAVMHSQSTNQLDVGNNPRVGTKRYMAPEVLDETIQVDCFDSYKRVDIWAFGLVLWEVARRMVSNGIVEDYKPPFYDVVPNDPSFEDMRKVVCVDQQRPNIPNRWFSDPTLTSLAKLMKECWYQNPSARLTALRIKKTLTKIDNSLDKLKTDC
# How it was run: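 Human ACVR1(145-509) kinase domain, N-terminal GST-tagged, with 1 mg/ml casein substrate and 33P-ATP in 20 mM HEPES pH 7.5, 10 mM MgCl2, 1 mM EGTA, 2 mM DTT, 1% DMSO. Incubated 120 min at ambient temperature, then spotted on P81 filters and washed. Background-subtracted activity taken as % of DMSO control; IC50 from curve fit.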
Structure (SMILES),IC50 [1],IC50 [2],IC50 [4],IC50 [3]
"O=c1[nH]cc(-c2ccnc3[nH]ccc23)cc1-c1nc2cc(N3CCOCC3)ccc2[nH]1 [Compound A41, 3-(5-Morpholin-4-yl-1H-benzimidazol-2-yl)-5-(1H-pyrrolo[2,3-b]pyridin-4-yl)-1H-pyridin-2-one]",10 nM,430 nM,7 nM,190 nM
"O=c1[nH]cc(-c2ccnc3[nH]ccc23)cc1-c1nc2cc(N3CCCCC3)ccc2[nH]1 [Compound A43, 3-(5-Piperidin-1-yl-1H-benzimidazol-2-yl)-5-(1H-pyrrolo[2,3-b]pyridin-4-yl)-1H-pyridin-2-one]",45 nM,870 nM,37 nM,1800 nM
"O=c1[nH]cc(-c2cccc3[nH]ccc23)cc1-c1nc2cc(N3CCNCC3)ccc2[nH]1 [Compound A48, 5-(1H-Indol-4-yl)-3-(5-piperazin-1-yl-1H-benzimidazol-2-yl)-1H-pyridin-2-one]",17 nM,1400 nM,22 nM,1000 nM
"Cc1cc2c(-c3c[nH]c(=O)c(-c4nc5cc(N6CCNCC6)ccc5[nH]4)c3)ccnc2[nH]1 [Compound A48a, 5-(2-Methyl-1H-pyrrolo[2,3-b]pyridin-4-yl)-3-(5-piperazin-1-yl-1H-benzimidazol-2-yl)-1H-pyridin-2-one]",49 nM,130 nM,44 nM,2700 nM
"CN1CCN(c2ccc3[nH]c(-c4cc(-c5ccnc6[nH]ccc56)c[nH]c4=O)nc3c2)CC1 [Compound A50, 3-[6-(4-Methyl-piperazin-1-yl)-1H-benzimidazol-2-yl]-5-(1H-pyrrolo-[2,3-b]pyridin-4-yl)-1H-pyridin-2-one]",2 nM,170 nM,5 nM,400 nM
"CN1CCN(c2ccc3[nH]c(-c4cc(-c5cnc6[nH]ccc6c5)c[nH]c4=O)nc3c2)CC1 [Compound A51, 3-[6-(4-Methyl-piperazin-1-yl)-1H-benzimidazol-2-yl]-5-(1H-pyrrolo[2,3-b]-pyridin-5-yl)-1H-pyridin-2-one]",120 nM,10000 nM,100 nM,5600 nM

# Continued, in another order:
IC50 [1],IC50 [2],IC50 [4],Structure (SMILES),IC50 [3]
16 nM,3200 nM,11 nM,"CN1CCN(c2ccc3[nH]c(-c4cc(-c5ccc(CO)cc5)c[nH]c4=O)nc3c2)CC1 [Compound A35, 5-(4-Hydroxymethyl-phenyl)-3-[5-(4-methyl-piperazin-1-yl)-1H-benzimidazol-2-yl]-1H-pyridin-2-one]",720 nM
2.9 nM,1100 nM,22 nM,"CN(C)C1CCN(c2ccc3[nH]c(-c4cc(-c5cccc(CO)c5)c[nH]c4=O)nc3c2)CC1 [Compound A36, 3-[5-(4-Dimethylamino-piperidin-1-yl)-1H-benzimidazol-2-yl]-5-(3-hydroxymethyl-phenyl)-1H-pyridin-2-one formate]",240 nM
73 nM,8100 nM,56 nM,"O=c1[nH]cc(-c2ccnc3[nH]ccc23)cc1-c1nc2cc(Oc3ccncc3)ccc2[nH]1 [Compound A40, 3-[5-(Pyridin-4-yloxy)-1H-benzimidazol-2-yl]-5-(1H-pyrrolo[2,3-b]pyridin-4-yl)-1H-pyridin-2-one]",5200 nM
4 nM,140 nM,6 nM,"O=c1[nH]cc(-c2ccnc3[nH]ccc23)cc1-c1nc2cc(N3CCNCC3)ccc2[nH]1 [Compound A44, 3-(5-Piperazin-1-yl-1H-benzimidazol-2-yl)-5-(1H-pyrrolo[2,3-b]pyridin-4-yl)-1H-pyridin-2-one dihydrochloride]",10000 nM
1.4 nM,280 nM,26 nM,"CN1CCCN(c2ccc3[nH]c(-c4cc(-c5ccnc6[nH]ccc56)c[nH]c4=O)nc3c2)CC1 [Compound A49, 3-[5-(4-Methyl-[1,4]diazepan-1-yl)-1H-benzimidazol-2-yl]-5-(1H-pyrrolo-[2,3-b]pyridin-4-yl)-1H-pyridin-2-one]",3700 nM
29 nM,480 nM,17 nM,"Cc1[nH]c2ncccc2c1-c1c[nH]c(=O)c(-c2nc3cc(N4CCN(C)CC4)ccc3[nH]2)c1 [Compound A52, 3-[5-(4-Methyl-piperazin-1-yl)-1H-benzimidazol-2-yl]-5-(2-methyl-1H-pyrrolo-[2,3-b]pyridin-3-yl)-1H-pyridin-2-one]",2600 nM
170 nM,2500 nM,80 nM,"CN1CCC(Oc2ccc3[nH]c(-c4cc(-c5ccnc6ccccc56)c[nH]c4=O)nc3c2)CC1 [Compound A59, 3-[6-(1-Methyl-piperidin-4-yloxy)-1H-benzimidazol-2-yl]-5-quinolin-4-yl-1H-pyridin-2-one]",12000 nM
